Measured values from patent US6403575B1, “3-Pyridyl enantiomers and their use as analgesics” (Abbott Laboratories, priority 1996, dated 2002).
Where a name gives a salt, the structure may show the parent alone.

Columns and labels:
rats [1] = assay: Paw Thermal Stimulator (Hotbox) Model; format: in vivo; settings: rat, i.p., tested 0.62 to 6.2 μmol/kg
Excerpt: For assessing nociceptive responses to an acute thermal stimulus, a commercially available paw thermal stimulator was utilized (Anesthesiology Research Laboratory, Department of Anesthesiology, University of California at San Diego, La Jolla, Calif.). This device has been previously described (Dirig, D. M. and Yaksh, T. L., Pain, 62: 321-328, 1995) and is based on the initial work of Hargreaves et al. (Pain, 32: 77-88, 1988). Rats were placed in Plexiglas cubicles that were located on a glass surface of the apparatus. The surface of the glass was maintained at 30° C. A thermal stimulus was applied to the bottom of the rear foot of the rat via a movable focused projection bulb. The stimulus current was maintained at 4.8 Amps. The latency until the animal moved its foot from the stimulus was recorded automatically by use of photodiode motion sensors. In the current studies, a 20 second cut-off was employed to limit possible tissue damage following exposure to the stimulus.
All studies began with a 20 min acclimation period. Following the acclimation period, a baseline measure was determined for each animal. Following determination of baseline, treatments were administered and measures were taken at various time points following treatment (e.g., 15, 30, and 45 min). For clarity, data were collapsed over time for statistical analysis (unless otherwise noted).
Stock solutions of compounds were prepared in absolute ethanol at a concentration of 62 μmol/ml. From this, solutions were made with 10% ethanol, and dosed by injection i.p. Compounds were tested in the dose range of from 0.62 to 6.2 μmol/kg.
For measurements, the following protocol was utilized. Six animals were used in each run. For any given measure (e.g., time point), one foot of each of the 6 animals was tested and then the process was repeated for the opposite foot. Mean values for the response were then computed based on the two scores.

mice = assay: Mouse Hot Plate Paradigm; format: in vivo; settings: 30 minutes prior to testing, 55° C.; for minimal effective dose: ip, 0.5 h, i.p., read-out: MED Hot plate model (μmol/kg, i.p.)
[2] = target: neuromuscular junction nicotinic acetylcholine receptor (Tetronarce californica, UniProt P02710+P02714+P02718); assay: biochemical; format: binding, Torpedo Californica; settings: read-out: Ki (nM) α-bungarotoxin
[3] = target: T1, neuronal nicotinic acetylcholine receptors (Rattus norvegicus, UniProt P09483+P12390); assay: [3H]-cytisine binding to neuronal nicotinic acetylcholine receptors, whole rat brain membranes; settings: [3H]-cytisine 1.25 nM, whole rat brain membranes; read-out: [3H] CYT Ki
T1 construct: crude synaptic membrane preparations from whole rat brain; from tissue; host or cells: whole rat brain, crude synaptic membranes
Method: Protocol for Determination of Nicotinic Acetylcholine Channel Receptor Binding Potencies of Ligands
Binding of [^3H]-cytisine ([^3H]-CYT) to neuronal nicotinic acetylcholine receptors was accomplished using crude synaptic membrane preparations from whole rat brain (Pabreza et al., Molecular Pharmacol., 1990, 39:9). Washed membranes were stored at −80° C. prior to use. Frozen aliquots were slowly thawed and resuspended in 20 volumes of buffer (containing: 120 mM NaCl, 5 mM KCl, 2 mM MgCl2, 2 mM CaCl2 and 50 mM Tris-Cl, pH 7.4 @4° C.). After centrifuging at 20,000×g for 15 minutes, the pellets were resuspended in 30 volumes of buffer. Homogenate (containing 125-150 μg protein) was added to triplicate tubes containing concentrations of test compound and [^3H]-CYT (1.25 nM) in a final volume of 500 μL. Samples were incubated for 60 minutes at 4° C., then rapidly filtered through Whatman GF/B filters presoaked in 0.5% polyethyleneimine using 3×4 mL of ice-cold buffer. The filters are counted in 4 mL of Ecolume® (ICN). Nonspecific binding was determined in the presence of 10 μM (−)-nicotine and values were expressed as a percentage of total binding.

rat spinal cord cultures = assay: Neuroprotection against substance P or glutamate toxicity in primary spinal cord cultures (LDH release); format: cell-based
beagle dogs = format: in vivo; settings: anesthetized dog, i.v. bolus 10 nmol/kg
Method: Male beagle dogs were anesthetized with pentobarbital (35 mg/kg, i.v.) followed by constant i.v. infusion of pentobarbital (5 mg/kg/h). The animals were ventilated with room air by means of a mechanical respiration pump. Blood pressure was measured using a dual tip micromanometer catheter (Millar, Model SPC-770, 7F) inserted into the heart left ventricle via the carotid artery. Compounds were injected into the right femoral vein via catheter. Hemodynamic variables were computed using XYZ Real Time Spreadsheet software on a signal processing workstation (Modular Instruments, Inc.). Sixty minutes were allowed following surgery to achieve a steady-state baseline for the measured variables. Test compounds were administered by i.v. bolus (10 nmol/kg) and compared for their relative ability to elicit changes in blood pressure and heart rate over a five minute data collection period.

[4] = target: T2, peripheral ganglionic receptors (Homo sapiens, UniProt P30926+P32297); assay: 86Rb+ flux activation in IMR-32 human neuroblastoma cells; format: cell-based; settings: 1 μM compound, % of maximum response to (S)-nicotine
T2 construct: Cells of the IMR-32 human neuroblastoma clonal cell line (ATCC, Rockville, Md.); host or cells: IMR-32 human neuroblastoma cells
Method: Protocol for the Determination of Ability of Nicotinic Acetylcholine Receptor Ligands to Activate Peripheral Ganglionic Receptors
Cells of the IMR-32 human neuroblastoma clonal cell line (ATCC, Rockville, Md.) were maintained in a log phase of growth according to established procedures. Experimental cells were seeded at a density of 500,000 cells/mL into a 24-well tissue culture dish. Plated cells were allowed to proliferate for at least 48 hours before loading with 2 μCi/mL of ^86Rb^+ (35 Ci/mmol) overnight at 37° C. The ^86Rb^+ efflux assays were performed according to previously published protocols (Lukas, R. J., J. Pharmacol. Exp. Ther., 265: 294-302, 1993) except serum-free Dulbecco's Modified Eagle's Medium was used during the ^86Rb^+ loading, rinsing, and agonist-induced efflux steps. Data reflect the activation of ^86Rb^+ flux at a concentration of 1 μM, and reflect the response as a percentage of the maximum response elicited by (S)-nicotine.

rats [5] = assay: Chung Model of Neuropathic Pain; format: in vivo; parameters: key: NS = no significant effect observed relative to saline controls at the doses tested; settings: rat, 50% threshold to VonFrey hairs
rats [6] = assay: Carrageenan paw edema model; format: in vivo; settings: rat

T2 sequence (P32297 32-505): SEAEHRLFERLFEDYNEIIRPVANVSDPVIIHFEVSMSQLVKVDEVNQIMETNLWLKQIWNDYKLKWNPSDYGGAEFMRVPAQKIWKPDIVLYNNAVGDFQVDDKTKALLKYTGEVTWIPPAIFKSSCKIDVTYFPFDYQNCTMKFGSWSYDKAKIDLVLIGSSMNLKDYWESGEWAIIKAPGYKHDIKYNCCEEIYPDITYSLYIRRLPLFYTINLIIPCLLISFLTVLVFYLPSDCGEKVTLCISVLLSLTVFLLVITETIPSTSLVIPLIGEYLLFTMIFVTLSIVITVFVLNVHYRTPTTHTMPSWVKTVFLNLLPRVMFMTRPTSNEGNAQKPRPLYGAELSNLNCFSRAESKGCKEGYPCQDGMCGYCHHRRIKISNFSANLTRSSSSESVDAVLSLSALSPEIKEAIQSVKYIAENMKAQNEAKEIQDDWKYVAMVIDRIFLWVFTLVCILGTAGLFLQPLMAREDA
T2 sequence (P30926 22-498): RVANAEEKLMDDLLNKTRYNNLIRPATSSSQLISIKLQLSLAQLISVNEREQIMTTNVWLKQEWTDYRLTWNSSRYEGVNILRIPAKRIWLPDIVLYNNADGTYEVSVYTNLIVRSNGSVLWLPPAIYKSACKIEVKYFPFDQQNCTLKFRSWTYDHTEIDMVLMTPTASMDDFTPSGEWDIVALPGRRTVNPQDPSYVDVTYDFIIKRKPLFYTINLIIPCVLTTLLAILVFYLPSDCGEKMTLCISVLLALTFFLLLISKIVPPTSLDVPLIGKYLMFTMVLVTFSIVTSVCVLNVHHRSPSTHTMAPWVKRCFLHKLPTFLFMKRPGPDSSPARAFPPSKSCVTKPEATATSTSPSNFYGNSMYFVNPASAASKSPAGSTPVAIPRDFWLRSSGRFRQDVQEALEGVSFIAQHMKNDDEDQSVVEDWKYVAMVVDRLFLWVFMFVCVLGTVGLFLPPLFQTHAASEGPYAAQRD
T1 sequence (P09483 31-630): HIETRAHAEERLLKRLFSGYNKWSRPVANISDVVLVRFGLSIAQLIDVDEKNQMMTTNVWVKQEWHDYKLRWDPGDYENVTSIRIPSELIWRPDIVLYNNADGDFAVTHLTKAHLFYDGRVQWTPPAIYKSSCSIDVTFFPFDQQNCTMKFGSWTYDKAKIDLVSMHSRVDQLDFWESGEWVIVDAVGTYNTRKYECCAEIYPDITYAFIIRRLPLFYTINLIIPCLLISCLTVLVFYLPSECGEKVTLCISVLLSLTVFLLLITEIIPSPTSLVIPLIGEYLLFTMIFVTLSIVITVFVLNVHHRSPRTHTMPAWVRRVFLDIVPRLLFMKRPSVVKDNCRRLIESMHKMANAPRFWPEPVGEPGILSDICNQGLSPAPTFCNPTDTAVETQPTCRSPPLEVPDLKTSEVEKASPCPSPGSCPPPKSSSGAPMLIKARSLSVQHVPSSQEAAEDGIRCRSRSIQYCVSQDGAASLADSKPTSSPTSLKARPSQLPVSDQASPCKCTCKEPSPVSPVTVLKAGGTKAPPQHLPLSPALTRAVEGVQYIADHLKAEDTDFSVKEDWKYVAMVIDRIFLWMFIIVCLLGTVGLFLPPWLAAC
T1 sequence (P12390 25-500): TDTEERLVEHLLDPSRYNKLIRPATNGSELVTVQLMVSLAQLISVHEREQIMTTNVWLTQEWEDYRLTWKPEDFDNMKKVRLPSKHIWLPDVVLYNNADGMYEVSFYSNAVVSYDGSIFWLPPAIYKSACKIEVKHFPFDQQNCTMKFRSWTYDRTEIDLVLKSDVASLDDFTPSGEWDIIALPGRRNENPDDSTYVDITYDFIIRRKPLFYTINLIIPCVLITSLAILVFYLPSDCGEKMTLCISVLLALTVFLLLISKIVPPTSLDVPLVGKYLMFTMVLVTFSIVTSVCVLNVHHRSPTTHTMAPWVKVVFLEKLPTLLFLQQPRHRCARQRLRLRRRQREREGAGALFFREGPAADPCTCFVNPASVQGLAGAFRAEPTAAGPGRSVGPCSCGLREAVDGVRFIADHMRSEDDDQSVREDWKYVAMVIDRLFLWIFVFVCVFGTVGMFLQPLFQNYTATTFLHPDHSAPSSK
Sequence of neuromuscular junction nicotinic acetylcholine receptor (P02714 18-506): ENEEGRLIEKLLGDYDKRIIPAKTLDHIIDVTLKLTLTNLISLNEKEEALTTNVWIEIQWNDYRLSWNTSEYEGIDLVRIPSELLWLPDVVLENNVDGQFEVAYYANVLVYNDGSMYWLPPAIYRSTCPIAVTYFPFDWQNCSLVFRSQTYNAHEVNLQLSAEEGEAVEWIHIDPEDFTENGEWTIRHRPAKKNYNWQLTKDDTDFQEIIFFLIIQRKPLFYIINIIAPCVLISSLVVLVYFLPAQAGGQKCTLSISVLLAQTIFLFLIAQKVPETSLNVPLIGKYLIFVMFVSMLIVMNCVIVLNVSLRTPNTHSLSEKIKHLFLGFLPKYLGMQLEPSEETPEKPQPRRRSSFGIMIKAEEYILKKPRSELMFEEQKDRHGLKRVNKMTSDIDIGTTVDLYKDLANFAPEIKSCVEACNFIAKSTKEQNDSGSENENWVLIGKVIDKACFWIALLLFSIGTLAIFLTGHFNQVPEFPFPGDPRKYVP
Sequence of neuromuscular junction nicotinic acetylcholine receptor (P02710 25-461): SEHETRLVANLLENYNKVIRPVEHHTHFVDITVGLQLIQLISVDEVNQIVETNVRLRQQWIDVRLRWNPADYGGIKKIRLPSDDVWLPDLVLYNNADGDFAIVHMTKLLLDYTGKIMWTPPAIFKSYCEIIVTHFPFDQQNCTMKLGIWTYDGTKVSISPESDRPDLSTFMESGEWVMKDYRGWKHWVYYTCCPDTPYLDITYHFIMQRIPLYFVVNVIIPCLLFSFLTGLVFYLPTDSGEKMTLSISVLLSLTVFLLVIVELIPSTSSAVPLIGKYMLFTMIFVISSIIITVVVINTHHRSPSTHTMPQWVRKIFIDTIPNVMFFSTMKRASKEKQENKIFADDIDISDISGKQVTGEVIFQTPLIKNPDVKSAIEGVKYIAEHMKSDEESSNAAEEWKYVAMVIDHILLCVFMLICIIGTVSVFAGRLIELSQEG
Sequence of neuromuscular junction nicotinic acetylcholine receptor (P02712 25-493, further chain): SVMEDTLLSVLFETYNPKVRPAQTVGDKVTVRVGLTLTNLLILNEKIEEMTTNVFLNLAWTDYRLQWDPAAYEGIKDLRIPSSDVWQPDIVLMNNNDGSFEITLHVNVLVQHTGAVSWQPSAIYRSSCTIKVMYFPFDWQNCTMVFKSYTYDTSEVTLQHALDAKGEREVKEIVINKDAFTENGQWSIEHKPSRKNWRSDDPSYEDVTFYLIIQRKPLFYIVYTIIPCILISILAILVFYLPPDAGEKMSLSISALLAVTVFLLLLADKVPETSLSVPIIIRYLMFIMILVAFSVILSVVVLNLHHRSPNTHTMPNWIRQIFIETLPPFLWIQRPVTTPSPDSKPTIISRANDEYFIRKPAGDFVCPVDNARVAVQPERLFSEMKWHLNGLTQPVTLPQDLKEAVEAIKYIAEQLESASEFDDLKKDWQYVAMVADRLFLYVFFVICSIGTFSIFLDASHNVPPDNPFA
Sequence of neuromuscular junction nicotinic acetylcholine receptor (P02718 22-522): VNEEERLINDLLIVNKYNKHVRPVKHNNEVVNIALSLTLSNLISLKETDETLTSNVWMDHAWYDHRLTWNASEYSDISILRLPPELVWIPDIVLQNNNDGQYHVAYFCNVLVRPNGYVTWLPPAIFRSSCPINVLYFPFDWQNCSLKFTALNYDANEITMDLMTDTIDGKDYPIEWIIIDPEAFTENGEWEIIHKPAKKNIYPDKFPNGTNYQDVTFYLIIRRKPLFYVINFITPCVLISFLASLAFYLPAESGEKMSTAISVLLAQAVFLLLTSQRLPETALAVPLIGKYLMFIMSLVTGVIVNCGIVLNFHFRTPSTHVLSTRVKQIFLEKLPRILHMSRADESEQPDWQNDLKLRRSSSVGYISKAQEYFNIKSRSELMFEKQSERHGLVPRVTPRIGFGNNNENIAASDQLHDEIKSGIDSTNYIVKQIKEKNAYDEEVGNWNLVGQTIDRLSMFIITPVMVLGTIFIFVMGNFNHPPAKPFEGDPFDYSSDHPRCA

For `O=C1CCC(=O)N1CN1CC[C@@H]1COc1ccc(F)nc1` [Example 71], the “analgesic dose” value (rats [1]) was 0.62 µmol/kg.
`O=C(CCSSCCC(=O)N1CC[C@@H]1COc1ccc(F)nc1)N1CC[C@@H]1COc1ccc(F)nc1` [Example 95] was tested, and the “analgesic dose” value (rats [1]) was over 6.2 µmol/kg.
For `O=C(Oc1ccc([N+](=O)[O-])cc1)N1CC[C@@H]1COc1ccc(F)nc1` [Example 80], the “analgesic dose” value (rats [1]) was 0.62 µmol/kg.
With `Cl.Cl.Clc1ccc(OC[C@@H]2CCN2)cn1` [Example 19, 5-((2S)-Azetidinylmethyloxy)-2-chloropyridine dihydrochloride] the “MED Hot plate model (μmol/kg, i.p.)” value (mice) was 0.62 µmol/kg, the Ki [2] was 1300 nM and the Ki [3] was 0.04 nM. The “less potent as a neuroprotectant in spinal cord” value (rat spinal cord cultures; relative to compound of Example 4) was 10 fold, the “Increase in Diastolic Blood Pressure (mm Hg)” value (beagle dogs) was 67.3 ± 3.2 mm Hg and the “Increase in Heart Rate (beats/min)” value (beagle dogs) was 26.0 ± 7.8 beats/min. The “IMR-32 % maximal nicotine response at 1 μM Cmpd conc'n” value (“IMR-32 % maximal nicotine response” for short) [4] was 173% and the “MED Chung model (μmol/kg, i.p.)” value (rats [5]) was 0.3 µmol/kg.
In the case of `CC1(C)CC(=O)C=C(N2CC[C@@H]2COc2ccc(F)nc2)C1` [Example 75], the “analgesic dose” value (rats [1]) is reported as 6.2 µmol/kg.
`Clc1ncc(OC[C@@H]2CCN2)cc1Br` [Example 17, 5-((2S)-azetidinylmethoxy)-3-bromo-2-chloropyridine hydrochloride] was tested, and the minimal effective dose (mice) was 1.9 µmol/kg, the Ki [3] was 0.02 nM and the “IMR-32 % maximal nicotine response” value [4] was 120%. The “MED Chung model (μmol/kg, i.p.)” value (rats [5]) was 0.19 µmol/kg.
With `O=C1c2ccccc2C(=O)N1CN1CC[C@@H]1COc1ccc(F)nc1` [Example 72] the “analgesic dose” value (rats [1]) was 0.62 µmol/kg.
In the case of `Fc1cncc(OC[C@@H]2CCN2)c1` [Example 10, 5-((2S)-Azetidinylmethyloxy)-3-fluoropyridine dihydrochloride], the minimal effective dose (mice) is reported as 6.2 µmol/kg, the Ki [3] is reported as 0.09 nM and the “IMR-32 % maximal nicotine response” value [4] is reported as 28%. For the same molecule, the “MED Chung model (μmol/kg, i.p.)” value (rats [5]) was 0.62 µmol/kg.
For `Clc1cc(OC[C@H]2CCN2)cnc1Cl` [Example 16, 5-((2R)-azetidinylmethoxy)-2,3-dichloropyridine hydrochloride], the minimal effective dose (mice) was 6.2 µmol/kg, the Ki [3] was 0.06 nM and the “IMR-32 % maximal nicotine response” value [4] was 85%. The “MED Chung model (μmol/kg, i.p.)” value (rats [5]) was 0.19 µmol/kg.
With `CNC1(C)C2CCC(C2)C1(C)C` (centres unmarked) [mecamylamine, reference compound] the “block of the neuroprotective effect by nicotinic antagonists” value (rat spinal cord cultures; mecamylamine 10 μM, MLA 10 nM, α-BTX 1 nM) was “blocked”, the “prevention of the paw edema effect of Example 4 by nicotinic antagonist” value (rats [6]) was “prevented” and the “prevention of the paw edema effect of Example 4 by nicotinic antagonist” value (rats [6]; listed as mecaamylamine) was “prevents this effect”.
In the case of `COc1ccc(OC(=O)N2CC[C@@H]2COc2ccc(F)nc2)cc1` [Example 81], the “analgesic dose” value (rats [1]) is reported as 0.62 µmol/kg.
In the case of `O=C(N1CCCC1)N1CC[C@@H]1COc1ccc(F)nc1` [Example 92], the “analgesic dose” value (rats [1]) is reported as over 6.2 µmol/kg.
With `Cl.Fc1ncccc1OC[C@@H]1CCN1` [Example 122, 2-Fluoro-3-(2(S)-azetidinylmethoxy)pyridine hydrochloride] the “MED Chung model (μmol/kg, i.p.)” value (rats [5]) was 1.9 µmol/kg.
In the case of `O=C(Oc1ccccc1)N1CC[C@@H]1COc1ccc(F)nc1` [Example 79], the “analgesic dose” value (rats [1]) is reported as 0.62 µmol/kg.
For `C[C@H](NC(=O)OC(C)(C)C)C(=O)N1CC[C@@H]1COc1ccc(F)nc1` [Example 54], the “analgesic dose” value (rats [1]) was over 6.2 µmol/kg.
In the case of `Clc1cc(OC[C@@H]2CCN2)cnc1Cl` [Example 15, 5-((2S)-azetidinylmethoxy)-2,3-dichloropyridine hydrochloride], the minimal effective dose (mice) is reported as 1.9 µmol/kg, the Ki [3] is reported as 0.02 nM and the “IMR-32 % maximal nicotine response” value [4] is reported as 117%. For the same molecule, the “MED Chung model (μmol/kg, i.p.)” value (rats [5]) was “NS”.
In the case of `Clc1ccc(OC[C@H]2CCN2)cn1` [Example 1, 5-((2R)-Azetidinylmethoxy)-2-chloropyridine], the “Increase in Diastolic Blood Pressure (mm Hg)” value (beagle dogs) is reported as 23.2 ± 4.6 mm Hg, the “Increase in Heart Rate (beats/min)” value (beagle dogs) is reported as 7.8 ± 2.9 beats/min and the “blood pressure increase as fraction of that seen with Example 19” value (beagle dogs) is reported as “⅓”. The “heart rate increase as fraction of that seen with Example 19” value (beagle dogs) was “⅓”.
